Key:
[1] = target: T1, hFASN enzyme (full length) (Homo sapiens, UniProt P49327); assay: Fatty Acid Synthase (FASN) inhibition scintillation proximity assay; format: biochemical; conditions: for inhibition at 10 µM: read-out: Human FASN % inhibition @ 10 μM, 10 μM test compound; for IC50: read-out: Human FASN pIC50 (converted)
T1 construct: 10 μL hFASN enzyme (full length, 300 ng, purified in house); made in house
Procedure, shortened: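 Scintillation proximity format: in-house full-length enzyme, 300 ng per well, pH 7.5 phosphate/DTT buffer, ³H-acetyl-CoA and malonyl-CoA. Emission counted on LEADseeker at 610 nm at least 24 h after stopping.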

A2780 ovarian cells [2] = assay: A2780 ovarian cell proliferation assay in lipid reduced medium, with palmitate (MTT); format: cell-based; conditions: Homo sapiens, A2780, 96 h; read-out: pIC50 A2780 Ovarian Cell, With Palmitate (converted)
Procedure, shortened: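 In this palmitate-supplemented format, compound dilutions (30 μM down to 0.01 μM) are added to cells in lipid-reduced serum with 25 μM palmitate, 0.2% fatty-acid-free BSA and 0.25% ethanol. After four days (96 h) MTT absorbance at 544 nm is recorded and fitted by minimum sum of squares.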

A2780 ovarian cells [3] = assay: A2780 ovarian cell proliferation assay in lipid reduced medium, without palmitate (MTT); format: cell-based; conditions: Homo sapiens, A2780, 96 h; read-out: pIC50 A2780 Ovarian Cell, Without Palmitate (converted)
[4] = tested on: LNCaP-Vancouver prostate cells; assay: In vitro LNCaP Vancouver prostate cell proliferation assay in lipid reduced medium; format: cell-based; conditions: read-out: pIC50 LNCaP_Vancouver prostate cell (converted)
[5] = tested on: PC-3M-Luc-C6 prostate cells; assay: In vitro PC-3M-Luc-C6 prostate cell proliferation assay in lipid reduced medium; format: cell-based; conditions: 96 h, read-out: pIC50 PC-3M-Luc-C6 prostate cell (converted)
[6] = target: Fatty Acid Synthase Keto-reductase Domain (FASN KR) (Homo sapiens, UniProt P49327); assay: Fatty Acid Synthase keto-reductase domain (FASN KR) inhibition, NADPH oxidation at 340 nm
Sequence of Fatty Acid Synthase Keto-reductase Domain (FASN KR) (P49327 whole entry, the tested form may be a part): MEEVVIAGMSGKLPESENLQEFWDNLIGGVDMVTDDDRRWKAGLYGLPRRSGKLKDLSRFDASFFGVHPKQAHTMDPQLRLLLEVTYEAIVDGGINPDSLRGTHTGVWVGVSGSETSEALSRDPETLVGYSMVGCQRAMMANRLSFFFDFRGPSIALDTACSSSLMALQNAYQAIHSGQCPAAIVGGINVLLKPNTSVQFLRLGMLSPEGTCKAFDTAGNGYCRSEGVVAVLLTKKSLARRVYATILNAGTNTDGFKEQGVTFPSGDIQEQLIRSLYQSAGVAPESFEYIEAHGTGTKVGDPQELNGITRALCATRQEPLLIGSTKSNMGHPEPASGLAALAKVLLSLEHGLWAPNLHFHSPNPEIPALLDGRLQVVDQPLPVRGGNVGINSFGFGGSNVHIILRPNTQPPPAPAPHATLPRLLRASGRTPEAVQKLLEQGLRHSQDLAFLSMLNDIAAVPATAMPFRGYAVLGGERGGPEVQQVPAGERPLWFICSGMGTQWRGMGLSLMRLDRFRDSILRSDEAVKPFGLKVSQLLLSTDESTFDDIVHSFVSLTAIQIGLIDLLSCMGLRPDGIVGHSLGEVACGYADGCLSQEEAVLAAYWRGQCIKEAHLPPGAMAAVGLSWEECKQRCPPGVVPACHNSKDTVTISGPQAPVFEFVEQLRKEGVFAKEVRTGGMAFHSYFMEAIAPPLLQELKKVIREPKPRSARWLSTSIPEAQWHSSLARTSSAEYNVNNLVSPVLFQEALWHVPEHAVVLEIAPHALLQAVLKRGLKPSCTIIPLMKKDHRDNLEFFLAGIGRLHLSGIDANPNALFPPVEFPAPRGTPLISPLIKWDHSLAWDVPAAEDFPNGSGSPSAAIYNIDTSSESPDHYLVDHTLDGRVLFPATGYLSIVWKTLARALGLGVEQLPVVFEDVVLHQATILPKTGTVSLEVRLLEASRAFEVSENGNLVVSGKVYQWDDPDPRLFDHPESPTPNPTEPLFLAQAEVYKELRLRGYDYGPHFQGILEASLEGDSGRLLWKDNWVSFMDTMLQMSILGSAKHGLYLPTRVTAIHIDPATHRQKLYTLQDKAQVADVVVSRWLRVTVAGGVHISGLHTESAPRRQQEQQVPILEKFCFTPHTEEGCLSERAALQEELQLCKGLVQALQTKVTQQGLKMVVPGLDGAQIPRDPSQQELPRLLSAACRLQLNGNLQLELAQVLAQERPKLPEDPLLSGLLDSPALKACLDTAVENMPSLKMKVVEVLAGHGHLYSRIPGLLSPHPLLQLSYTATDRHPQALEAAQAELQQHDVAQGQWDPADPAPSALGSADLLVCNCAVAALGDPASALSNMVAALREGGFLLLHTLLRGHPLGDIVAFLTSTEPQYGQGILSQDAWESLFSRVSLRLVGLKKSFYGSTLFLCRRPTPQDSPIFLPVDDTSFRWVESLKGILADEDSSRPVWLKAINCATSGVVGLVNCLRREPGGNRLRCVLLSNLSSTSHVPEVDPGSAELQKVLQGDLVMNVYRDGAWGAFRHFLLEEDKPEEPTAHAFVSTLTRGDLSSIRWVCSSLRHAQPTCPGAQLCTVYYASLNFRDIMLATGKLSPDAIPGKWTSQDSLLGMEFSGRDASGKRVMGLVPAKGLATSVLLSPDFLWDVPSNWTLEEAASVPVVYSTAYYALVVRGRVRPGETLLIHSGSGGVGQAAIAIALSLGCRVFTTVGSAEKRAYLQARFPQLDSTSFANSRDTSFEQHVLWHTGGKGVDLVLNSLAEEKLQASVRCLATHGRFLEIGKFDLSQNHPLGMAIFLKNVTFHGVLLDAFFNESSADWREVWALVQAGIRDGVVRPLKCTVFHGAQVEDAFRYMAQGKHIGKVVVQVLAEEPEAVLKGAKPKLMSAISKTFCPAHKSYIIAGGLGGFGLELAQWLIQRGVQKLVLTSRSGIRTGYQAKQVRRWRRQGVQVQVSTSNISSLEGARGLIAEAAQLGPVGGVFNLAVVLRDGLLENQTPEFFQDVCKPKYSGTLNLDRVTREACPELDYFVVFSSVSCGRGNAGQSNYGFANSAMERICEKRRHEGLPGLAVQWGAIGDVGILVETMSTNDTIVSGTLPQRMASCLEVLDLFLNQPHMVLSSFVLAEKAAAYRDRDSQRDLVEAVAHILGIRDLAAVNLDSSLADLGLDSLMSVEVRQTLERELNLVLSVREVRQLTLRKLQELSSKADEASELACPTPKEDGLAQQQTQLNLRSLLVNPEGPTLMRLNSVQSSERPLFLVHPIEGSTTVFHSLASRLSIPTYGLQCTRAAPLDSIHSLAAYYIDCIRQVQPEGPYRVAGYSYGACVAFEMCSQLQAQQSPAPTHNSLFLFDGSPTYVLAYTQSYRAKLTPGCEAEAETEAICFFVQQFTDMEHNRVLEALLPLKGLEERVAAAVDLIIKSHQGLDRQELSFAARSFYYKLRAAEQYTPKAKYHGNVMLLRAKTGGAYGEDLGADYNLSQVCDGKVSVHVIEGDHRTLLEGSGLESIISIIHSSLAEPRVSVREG
Method: After 20 minutes incubation at room temperature the plate was measured again (T2).
The decrease in absorbance was calculated as (Absorbance before incubation T1)−(Absorbance following incubation T2).
A plot of Controlmin versus test compound concentration was fitted to a 4-parameter logistic curve using a non-linear least squares regression method.

T1 sequence (P49327 whole entry): as the sequence (P49327 whole entry, the tested form may be a part) above

inhibition at 10 µM [1] [%]	IC50 [1] [µM]	IC50 (A2780 ovarian cells [2]) [µM]	IC50 (A2780 ovarian cells [3]) [µM]	IC50 [4] [µM]	IC50 [5] [µM]	IC50 [6] [µM]	Structure (SMILES)
102	0.0234	> 10	0.0204	0.0708	0.0158	0.0245	Cn1ccc2cc(-c3ccc(C4=NC5(CC5)C(=O)N4C[C@@H]4CCN(C(=O)C5CC5)C4)cc3)ccc21 [compound 215, (R)-6-((1-(cyclopropanecarbonyl)pyrrolidin-3-yl)methyl)-5-(4-(1-methyl-1H-indol-5-yl)phenyl)-4,6-diazaspiro[2.4]hept-4-en-7-one]
102	0.0288	> 10	0.0631	0.162	~0.0537	0.049	O=C(C1CC1)N1CC[C@@H](CN2C(=O)C3(CC3)N=C2c2ccc(-c3ccc4[nH]c(CO)cc4c3)cc2)C1 [compound 216, (R)-6-((1-(cyclopropanecarbonyl)pyrrolidin-3-yl)methyl)-5-(4-(2-(hydroxymethyl)-1H-indol-5-yl)phenyl)-4,6-diazaspiro[2.4]hept-4-enn-7-one]
103	0.0288	> 10	0.0302	0.178	0.0501	0.049	O=C(C1CC1)N1CC[C@@H](CN2C(=O)C3(CC3)N=C2c2ccc(-c3ccc4[nH]cc(CCO)c4c3)cc2)C1 [compound 217, (R)-6-((1-(cyclopropanecarbonyl)pyrrolidin-3-yl)methyl)-5-(4-(3-(2-hydroxyethyl)-1H-indol-5-yl)phenyl)-4,6-diazaspiro[2.4]hept-4-en-7-one]
95	0.0724	> 10	0.0851	0.417	0.0724	0.102	Cc1nn(C)c2ccc(-c3ccc(C4=NC5(CC5)C(=O)N4C[C@@H]4CCN(C(=O)C5CC5)C4)cc3)cc12 [compound 218, (R)-6-((1-(cyclopropanecarbonyl)pyrrolidin-3-yl)methyl)-5-(4-(1,3-dimethyl-1H-indazol-5-yl)phenyl)-4,6-diazaspiro[2.4]hept-4-en-7-one]
103	0.0759	1.17	0.0676	0.302	0.126	0.263	Nc1cc2cc(-c3ccc(C4=NC5(CC5)C(=O)N4C[C@@H]4CCN(C(=O)C5CC5)C4)cc3)ccc2cn1 [compound 219, (R)-5-(4-(3-aminoisoquinolin-6-yl)phenyl)-6-((1-(cyclopropanecarbonyl)pyrrolidin-3-yl)methyl)-4,6-diazaspiro[2.4]hept-4-en-7-one]
92	0.0977	6.92	0.0468	~0.38	0.132	0.234	Cn1nc(C(N)=O)c2ccc(-c3ccc(C4=NC5(CC5)C(=O)N4C[C@@H]4CCN(C(=O)C5CC5)C4)cc3)cc21 [compound 221, (R)-6-(4-(6-((1-(cyclopropanecarbonyl)pyrrolidin-3-yl)methyl)-7-oxo-4,6-diazaspiro[2.4]hept-4-en-5-yl)phenyl)-1-methyl-1H-indazole-3-carboxamide]
103	0.0275	~2.45	0.00617	0.0468	0.00933	~0.0513	N#Cc1ccc2cc(-c3ccc(C4=NC5(CC5)C(=O)N4CC4CN(C(=O)C5CC5)C4)c(F)c3)ccc2c1 [compound 222, 6-(4-(6-((1-(cyclopropanecarbonyl)azetidin-3-yl)methyl)-7-oxo-4,6-diazaspiro[2.4]hept-4-en-5-yl)-3-fluorophenyl)-2-naphthanitrile]
103	0.0251	~10	0.00776	0.0562	0.0126	0.0776	Cc1cc(-c2ccc3cc(C#N)ccc3c2)ccc1C1=NC2(CC2)C(=O)N1CC1CN(C(=O)C2CCO2)C1 (centres unmarked) [compound 224, 6-(3-methyl-4-(6-((1-(oxetane-2-carbonyl)azetidin-3-yl)methyl)-7-oxo-4,6-diazaspiro[2.4]hept-4-en-5-yl)phenyl)-2-naphthonitrile]
